From patent US8044098B2, “Use of hydroxybenzoic acids and their esters and analogues for preventing or treating virus infection” (Shenghua Guangzhou Pharmaceutical Science & Technology Co., …, priority 2005, dated 2011)

Legend:
HPV 16/18 = experiment: Drug screening by quantitative fluorescent PCR analysis of HPV 16/18 in condyloma acuminata homogenate; design: species or system human papillomavirus (HPV)
condyloma acuminata = experiment: Clinical use in treating condyloma acuminata; assay type: in vivo, human
Description: Soft hyperplasia with nipple or cauliflower shaped or other shaped warts were found around the skin of the cunnus or anus. The result from 5% acetate acid white test was positive.
Patients selected for the clinical observation must meet the above standards. Plus the diameter of their skin lesions should equal to or be less than 1 cm. […] Patients who had vaginal yeast, trichomonas, bacteria infection or other complications, chronic diseases, serious liver or kidney diseases or women in pregnancy or lactation were not selected. Treatments to women would not be conducted in their menstrual periods.
50 qualified patients were selected and randomly divided into five groups to be tested with p-hydroxybenzoic acid, gallic acid, ethyl p-hydroxybenzoate, propyl gallate and recombinant human interferon α-2β gel, respectively. The samples of p-hydroxybenzoic acid, gallic acid, ethyl p-hydroxybenzoate and propyl gallate were prepared as described in Example 1. The patients were treated with the test sample to the affected areas three times a day, in the morning, at noon and night. The samples were applied to cover the warts and the patients were required to leave the treated areas exposed and not to move for 20 minutes.
Observation time: 8 days. Patients not cured after 8 days would continue to use the test samples for another 12 weeks, and their prognosis was followed during the 12-week period.
Observed items: the location, shape, size and number of warts were carefully observed and recorded before the treatment.
“Recovered”: all skin lesions had disappeared;
“Obvious Effect”: more than 70% of the skin lesions had disappeared;
“Improved”: more than 30% of the skin lesions had disappeared;
“Not Effective”: less than 30% of the skin lesions had disappeared or the original skin lesions didn't change or even enlarged.

[1] = assay type: physicochemical
Experimental: 20 ml 1,2-propylene glycol, 15 ml Tween-80 and 5 ml azone were mixed together and sterile distilled water was added to bring the volume to 100 ml. The pH value of the solution was adjusted to pH 6.8 with NaOH or HCl to obtain a micro emulsion. 10 g propyl gallate and 10 g gallic acid were dissolved in the micro emulsion, respectively, and mixed well. 10 ml of each micro emulsion was added to a capped transparent glass tube. Both solutions were colorless. The absorbance of the two solutions at 400˜500 nm was measured with spectrophotometry and their absorbance was under 0.15. […] Measured by spectrophotometry again, the absorbance of the gallic acid solution was 1.2 and that of the propyl gallate solution was 0.4.

cervical erosion = experiment: Clinical use of propyl gallate in treating cervical erosion; assay type: in vivo, human; details: for total effectiveness rate: recovered or improved
Experimental: 4 g propyl gallate was mixed with 40 ml 1,2-propylene glycol and heated to let the ingredients to dissolve. Sterile distilled water was added to the mixture to reach a final volume of 100 ml. 28 married female patients of 22-50 years old were selected for the test. […] The patients were also tested for the absence of vaginal yeast infection or trichomoniasis or sexually transmitted diseases. The patients were randomly divided into two groups of 14 patients each. One group was treated with propyl gallate micro emulsion, the other group with interferon-α suppository (made by Wuhan Tian'ao Pharmaceutical Co.). The treatment was started three days after a patient's last menstrual period. The propyl gallate micro emulsion was applied to the mucosa surfaces with cervical erosion every other day for 30 days. Out of the group treated with propyl gallate, 7 patients had the medicine applied to them by medical professionals at a hospital, the other 7 patients applied the medicine by themselves at home. On the other hand, an interferon-α suppository was used by each patient in the control group once a day before sleep for 30 days. “Recovered”: the cervical skin became smooth, cervical erosion had disappeared; […] The effectiveness of treatment was calculated based on the number of patients that were “recovered” or “improved”. Among patients of the propyl gallate group who were treated at the hospital, the “recovered” rate was about 81%, the “improved” rate was about 15%, and the total effectiveness rate was about 96%. Among patients of the propyl gallate group who were treated at home, the “recovered” rate was about 32%, the “improved” rate was about 55%, and the total effectiveness rate was about 87%. Among patients treated with interferon-α suppository, the “recovered” rate was about 22%, the “improved” rate was about 57%, and the total effectiveness rate was about 79%.

[2] = test system: secretion of HBeAg by 2.2.15 cells; experiment: Inhibition of secretion of HBeAg by Hepatitis B 2.2.15 cell line; assay type: cell-based, HBV; details: 1 μmol/ml
Description: (§1) Hepatitis B 2.2.15 cell line was transfected by HBV DNA (purchased from Institute of Biochemistry and Cell Biology of Shanghai Institute for Biological Sciences or the National Center for Drug Screening) and used as the cell model for screening anti-HBV drug compounds (See Chinese Journal Of Integrated Traditional and Western Medicine on Liver Diseases, 2004, 14(3): 158). The cell culture medium DMEM (GIBCO Company), bovine serum (Hangzhou Siji Qing Biochemical Manufacturer), G418 (GIBCO Company), 3-(4,5-dimethylthiazol-2-yl)-2,5-diphenyltetrazoliumbromide (Sigma), HBsAg and HBeAg diagnostic kit (Shanghai Kehua Bio-engineering Co., Ltd).
(§2) The test compounds listed in Table 3 below were dissolved in a mixture containing 20 ml 1,2-propylene glycol and 15 ml Tween-80 and diluted with sterile saline water to 2 μmol/ml of the test compound. Then it was mixed with the cell culture medium at equal volume to obtain a solution containing 1 μmol/ml of the tested compound. Cells at the concentration of 1×10^5 cells per milliliter were inoculated to a 24-well plate at 1 ml/well. Supernatant from the cell culture mixture was collected three days later for testing.

[3] = test system: secretion of HBsAg by 2.2.15 cells; experiment: Inhibition of secretion of HBsAg by Hepatitis B 2.2.15 cell line; assay type: cell-based, HBV; details: 1 μmol/ml
Description: as §1, §2

[4] = patients treated at home (7), every other day for 30 days
[5] = 2.2.15 cells, supernatant collected three days later

CCCOC(=O)c1cc(O)c(O)c(O)c1 [Propyl gallate]
HPV 16/18 Virus (copies/ml) (HPV 16/18; 50 μl 10% micro emulsion + 50 μl HPV sample homogenate, 37° C., 24 hours, saline control 1.40 × 10^5): 0 copies/ml | HPV 16/18 detected by FQ-PCR (in words) (HPV 16/18; 24 hours after adding the test compound): no HPV 6/11 or HPV 16/18 was detected | treatment effect compared to recombinant human interferon α-2β gel (condyloma acuminata; condyloma acuminata patients, 10% micro emulsion): more apparent treatment effect | Recovered, 1-4 days (condyloma acuminata; number of patients (50 patients in five groups), 10% micro emulsion on affected areas three times a day, all skin lesions disappeared): 7 | Recovered, 5-8 days (condyloma acuminata; number of patients, 10% micro emulsion three times a day, all skin lesions disappeared): 1 | Obvious Effect, 1-4 days (condyloma acuminata; number of patients, more than 70% of the skin lesions disappeared): 2 | colour of solution, initial ([1]; micro emulsion pH 6.8, freshly prepared): colorless | absorbance after 30 days ([1]; micro emulsion pH 6.8, kept at room temperature for 30 days, 400˜500 nm): 0.4 | colour of solution after 30 days ([1]; micro emulsion pH 6.8, room temperature for 30 days): remained colorless | “improved” rate (cervical erosion; [4]): about 55% | “recovered” rate (cervical erosion; [4]): about 32% | total effectiveness rate (cervical erosion; patients treated at home (7)): about 87% | “recovered” rate (cervical erosion; patients treated at the hospital (7), 4% micro emulsion every other day for 30 days): about 81% | “improved” rate (cervical erosion; patients treated at the hospital (7), every other day for 30 days): about 15% | total effectiveness rate (cervical erosion; patients treated at the hospital (7)): about 96% | effectiveness compared with interferon-α suppository (cervical erosion; patients treated at the hospital, P<0.05): significantly better | effect on the secretion of HBeAg by the 2.2.15 cells (in words) [2]: had inhibition effect | inhibition of HBeAg secretion compared with gallic acid and 3,4-dihydroxybenzoic acid [2]: more effective | HBeAg Inhibition Rate [2, 5]: 12.04% | effect on the secretion of HBsAg by the 2.2.15 cells (in words) [3]: had inhibition effect | inhibition of HBsAg secretion compared with gallic acid and 3,4-dihydroxybenzoic acid [3]: more effective | HBsAg Inhibition rate [3, 5]: 18.83%
